These results are taken from US6900219B2, “ABCA-1 elevating compounds” (CV Therapeutics, Inc., priority 2002, dated 2005).

This test relates to ABCA-1 gene. The test is described as follows: compounds tested and found to elevate cellular expression of the ABCA-1 gene (Examples 1-6; test not named). Type of test: cell-based. The protocol:
Activity testing is conducted as described in those patents and patent applications referenced above, and in the Examples below, and by methods apparent to one skilled in the art.
`COc1cccc(C(=O)NC2=NCCS2)c1` [(3-methoxyphenyl)-N-(1,3-thiazolin-2-yl)carboxamide]: the “cellular expression of the ABCA-1 gene” value is “elevate cellular expression of the ABCA-1 gene”.

Consider `Clc1ccc(-c2cc(-c3ccccc3)[nH]n2)cc1` [3-(4-chlorophenyl)-5-phenylpyrazole], for which the “cellular expression of the ABCA-1 gene” value was “elevate cellular expression of the ABCA-1 gene”.

For “{1-[4-(3-methoxyphenyl)(1,3-thiazol-2-yl)]-5-methylpyrazol-4-yl}-N-(methylethyl)carboxamide”, the “cellular expression of the ABCA-1 gene” value is given as “elevate cellular expression of the ABCA-1 gene”.

In the case of `CC(C)(C)c1ccc(C(=O)Nc2nc(-c3ccc(Cl)cc3)cs2)cc1` [[4-(tert-butyl)phenyl]-N-[4-(4-chlorophenyl)(1,3-thiazol-2-yl)]carboxamide], the “cellular expression of the ABCA-1 gene” value was “elevate cellular expression of the ABCA-1 gene”.

`O=[N+]([O-])c1ccc(-c2cnc3ccc(Cl)cn23)cc1` [6-chloro-3-(4-nitrophenyl)-4-hydroimidazolo[1,2-a]pyridine]: the “cellular expression of the ABCA-1 gene” value is “elevate cellular expression of the ABCA-1 gene”.

Consider `CCOC(=O)CCN(C(=O)CCc1ccccc1)c1ccc(CC)cc1` [ethyl 3-[(4-ethylphenyl)-N-(2-phenylethyl)carbonylamino]propanoate], for which the “cellular expression of the ABCA-1 gene” value was “elevate cellular expression of the ABCA-1 gene”.

As for “(2,4-difluorophenyl)-N-(4-naphthyl(1,3-thiazol-2-yl))carboxamide”, the “cellular expression of the ABCA-1 gene” value was “elevate cellular expression of the ABCA-1 gene”.

With `Cc1ccc(C)c(NC(=O)c2sc3ccccc3c2Cl)c1` [N-(2,5-dimethylphenyl)(3-chlorobenzo[b]thiophen-2-yl)carboxamide], the “cellular expression of the ABCA-1 gene” value is “elevate cellular expression of the ABCA-1 gene”.

In the case of `O=C(Nc1nccs1)c1ccc(OC(F)(F)F)cc1` [N-(1,3-thiazol-2-yl)[4-(trifluoromethoxy)phenyl]carboxamide], the “cellular expression of the ABCA-1 gene” value is “elevate cellular expression of the ABCA-1 gene”.

For the compound `O=C1CSC(NC(=O)c2cccc(Cl)c2)=N1` [(3-chlorophenyl)-N-(4-oxo(1,3-thiazolin-2-yl))carboxamide], the “cellular expression of the ABCA-1 gene” value is “elevate cellular expression of the ABCA-1 gene”.

On to `O=C(Cc1cccs1)Nc1ncc(-c2ccccc2)s1` [N-(5-phenyl(1,3-thiazol-2-yl))-2-(2-thienyl)acetamide], for which the “cellular expression of the ABCA-1 gene” value is “elevate cellular expression of the ABCA-1 gene”.

In the case of `O=C(Cc1cccs1)Nc1nc2ccccc2s1` [N-benzothiazol-2-yl-2-(2-thienyl)acetamide], the “cellular expression of the ABCA-1 gene” value was “elevate cellular expression of the ABCA-1 gene”.

`CCc1c(C(=O)NCc2ccco2)cnn1-c1nc(-c2ccc(OC)cc2)cs1` [5-ethyl-1-[4-(4-methoxy-phenyl)-thiazol-2-yl]-1H-pyrazole-4-carboxylic acid (furan-2-ylmethyl)-amide]: the “cellular expression of the ABCA-1 gene” value is recorded as “elevate cellular expression of the ABCA-1 gene”.

As for `CCCCCCCCCCCC(=O)N(/C=C/c1ccccc1)c1ccc(CC)cc1` [N-((1E)-2-phenylvinyl)-N-(4-ethylphenyl)dodecanamide], the “cellular expression of the ABCA-1 gene” value is listed as “elevate cellular expression of the ABCA-1 gene”.

As for `CC(C)CN(C(=O)Nc1cccc(Br)c1)C(C)c1nc2ccccc2c(=O)n1-c1ccc2ccccc2c1` (stereo not drawn) [[(3-bromophenyl)amino]-N-(2-methylpropyl)-N-[(3-(2-naphthyl)-4-oxo(3-hydroquinazolin-2-yl))ethyl]carboxamide], the “cellular expression of the ABCA-1 gene” value is recorded as “elevate cellular expression of the ABCA-1 gene”.

Regarding “N-(2-phenylcyclopropyl)piperidylcarboxamide”, the “cellular expression of the ABCA-1 gene” value is on record as “elevate cellular expression of the ABCA-1 gene”.

Take “N-(4-naphthyl(1,3-thiazol-2-yl))[3-(trifluoromethyl)phenyl]carboxamide”: the “cellular expression of the ABCA-1 gene” value is “elevate cellular expression of the ABCA-1 gene”.

Consider `O=C(Nc1nc(-c2ccc(Cl)cc2)cs1)C1CCCC1` [N-[4-(4-chlorophenyl)(1,3-thiazol-2-yl)]cyclopentylcarboxamide], for which the “cellular expression of the ABCA-1 gene” value is listed as “elevate cellular expression of the ABCA-1 gene”.

`Cc1c(C(=O)NCc2ccccc2)cnn1-c1nc(-c2ccc(Cl)cc2)cs1` [{1-[4-(4-chlorophenyl)(1,3-thiazol-2-yl)]-5-methylpyrazol-4-yl}-N-benzylcarboxamide]: the “cellular expression of the ABCA-1 gene” value is on record as “elevate cellular expression of the ABCA-1 gene”.

In the case of `Cc1ccc2nc(/C(C#N)=C/c3ccco3)[nH]c2c1` [(2E)-3-(2-furyl)-2-(5-methylbenzimidazol-2-yl)prop-2-enenitrile], the “cellular expression of the ABCA-1 gene” value is “elevate cellular expression of the ABCA-1 gene”.

Take `CCCNC(=O)Nc1nc2ccccc2s1` [N-benzothiazol-2-yl(propylamino)carboxamide]: the “cellular expression of the ABCA-1 gene” value is on record as “elevate cellular expression of the ABCA-1 gene”.

With `O=C(Nc1ccc(Br)cc1)c1ccc2ccccc2c1` [N-(4-bromophenyl)-2-naphthylcarboxamide], the “cellular expression of the ABCA-1 gene” value was “elevate cellular expression of the ABCA-1 gene”.

For `O=C(Nc1nc2c(Cl)cccc2s1)c1ccco1` [N-(4-chlorobenzothiazol-2-yl)-2-furylcarboxamide], the “cellular expression of the ABCA-1 gene” value is given as “elevate cellular expression of the ABCA-1 gene”.

On to `O=C(Nc1nc2ccccc2c(=O)o1)c1ccc(Cl)cc1` [(4-chlorophenyl)-N-(4-oxobenzo[d]1,3-oxazin-2-yl)carboxamide], for which the “cellular expression of the ABCA-1 gene” value is given as “elevate cellular expression of the ABCA-1 gene”.

For the compound `CCc1c(C(=O)N2CCN(C(=O)C(c3ccccc3)c3ccccc3)C(C)C2)cnn1-c1nc(-c2ccc(OC)cc2)cs1` (stereo not drawn) [1-(4-{5-ethyl-1-[4-(4-methoxy-phenyl)-thiazol-2-yl]-1H-pyrazole-4-carbonyl}-2-methyl-piprazin-1-yl)-2,2-diphenyl-ethanone], the “cellular expression of the ABCA-1 gene” value was “elevate cellular expression of the ABCA-1 gene”.

Turning to `CCOC(=O)C1=C(NCCc2ccccc2)CCN(C(=O)c2ccc(Cl)cc2Cl)C1` [ethyl 1-[(2,4-dichlorophenyl)carbonyl]-4-[(2-phenylethyl)amino]-1,2,5,6-tetrahydropyridine-3-carboxylate], the “cellular expression of the ABCA-1 gene” value was “elevate cellular expression of the ABCA-1 gene”.

Take `O=C(Nc1ccc(F)cc1F)c1cc2ccccc2s1` [benzo[b]thiophen-2-yl-N-(2,4-difluorophenyl)carboxamide]: the “cellular expression of the ABCA-1 gene” value is recorded as “elevate cellular expression of the ABCA-1 gene”.

As to `CC(=O)c1ccc(NC(=O)Nc2ccc(Cl)c(Cl)c2)cc1` [[(4-acetylphenyl)amino]-N-(3,4-dichlorophenyl)carboxamide], the “cellular expression of the ABCA-1 gene” value was “elevate cellular expression of the ABCA-1 gene”.

As to `CC(C)CN(C(=O)Nc1cccc(C(F)(F)F)c1)C(C)c1nc2ccccc2c(=O)n1-c1ccc2ccccc2c1` (stereo not drawn) [N-(2-methylpropyl)-N-[(3-(2-naphthyl)-4-oxo(3-hydroquinazolin-2-yl))ethyl]{[3-(trifluoromethyl)phenyl]amino}carboxamide], the “cellular expression of the ABCA-1 gene” value is reported as “elevate cellular expression of the ABCA-1 gene”.

Turning to `O=C(Nc1ccc(Cl)cc1)NC1CCCCC1` [[(4-chlorophenyl)amino]-N-cyclohexylcarboxamide], the “cellular expression of the ABCA-1 gene” value is “elevate cellular expression of the ABCA-1 gene”.
